According to patent US7064120B2, “Tricyclic pyridyl carboxamides and derivatives thereof tocolytic oxytocin receptor antagonists” (Wyeth, priority 2001, dated 2006):

What follows are compounds tested against T1, human vasopressin V1a receptor subtype (Homo sapiens, UniProt P37288) (assay: Vasopressin binding in CHO cell membranes expressing human vasopressin V1a subtype receptors ([3H]Manning ligand radioligand binding)). Settings: 100 nM.
T1 construct: host or cells: CHO cells, stably transfected (pZeoSV vector for the Thibonnier line)
Experimental: Vasopressin Binding in Chinese Hamster Ovary Cell Membranes Expressing Human Vasopressin V1a Subtype Receptors
The trypsin is removed by aspiration and the cells dislodged by tapping. Cell Culture medium (e.g. 30 mL for 1:30 split) is immediately added and mixed well to inactivate trypsin. 1 mL of detached cells is added to new culture flasks containing fresh cell culture medium (e.g., into 25 mL per T-150 flask), and mixed gently. The cells are incubated at 37° C. in 5% CO2. The medium is changed at 3 to 4 days interval (or as appropriate). […] All steps are done under sterile conditions.
The cells are washed twice gently with Hank's Balanced Salt solution (e.g,. use 10 mL per T-150 flask). […] The contents are transferred to centrifuge tubes (50 mL) kept in an ice bath. All subsequent steps are done at 4° C. The tubes are centrifuged at 300×g for 15 min (1380 rpm on SORVAL, Model RT6000D, using the rotor for 50 mL tubes). The supernatant is discarded and the cells suspended in homogenizing buffer(10 mM Tris-HCl containing 0.25 M sucrose and 1 mM EDTA, pH 7.4) ensuring that the volume of the buffer is about ten times the volume of the cell pellet. The cells are pooled into a centrifuge tube (50 mL) and homogenized with Polytron at setting 6 for 10 sec. The homogenate is transferred into a Potter-Elvjehm homogenizer and homogenized with 3 strokes. The homogenate is centrifuged at 1500×g for 10 min at 4° C. (3100 rpm using SORVAL, model RT6000D, using the rotor for 50 mL tubes). The pellet is discarded. The supernatant is centrifuged at 100,000×g for 60 min. at 4° C. (Beckman L8-80M ultracentrifuge; spin at 37,500 rpm with rotor type 70 Ti for 50 mL tubes; 38,000 rpm with type 80Ti for 15 mL tubes; or 35,800 rpm with rotor type 45Ti). The supernantant is discarded and the pellet suspended in 3 to 4 mL of Tris buffer (50 mM TRIS-HCl, pH 7.4). The protein content is estimated by the Bradford or Lowry method. The volume of the membrane suspension is adjusted with the membrane buffer (50 mM Tris-HCl containing 0.1% BSA and 0.1 mM PMSF) to give 3.0 mg/mL (or as appropriate) of protein. The membranes are aliquoted and stored at −70° C.
In wells of a 96-well format microtiter plate, is added 90, 110 or 130 μL (to make up a final volume of 200 μL) of assay buffer containing 50 mM of Tris-HCl (pH 7.4), BSA (heat inactivated, protease-free), […], 1 mg % aprotinin, 1 mg % leupeptin, 2 mg % 1,10-phenanthroline, 10 mg % trypsin inhibitor, and 0.1 mM PMSF. The inhibitors are added on the day of the experiment. The components are mixed at room temperature, and then kept in ice bath following adjustment of the pH to 7.4. […] 20 μL of 50% DMSO is added for Manning and other peptide ligands and the assay buffer volume is adjusted accordingly. To each well is added 50 μL of frozen membrane suspension thawed immediately prior to use and diluted in the assay buffer to the required concentration (equivalent to 25 to 50 μg of protein/well as needed). 20 μL of 8 nM [^3H]Manning ligand in the assay buffer, prepared just before use, is added, and incubated at room temperature for 60 min. shaking the plate on a mechanical shaker for the first 15 min. The incubation is stopped by rapid filtration of the plate contents followed by wash with ice-cold buffer (50 mM Tris-HCl, pH 7.4) using a cell harvester (Tomtek and Printed filtermat-B filter paper). The filter paper is thoroughly dried (7–12 min. in a microwave oven) and impregnated with MeltiLex B/H melt-on scintillation wax sheets and the radioactivity counted in a betaplate scintillation counter.
Binding data is either reported as percent inhibition at a certain concentration or if an IC50 was calculated, as a nanomolar concentration.

T1 sequence (P37288 whole entry): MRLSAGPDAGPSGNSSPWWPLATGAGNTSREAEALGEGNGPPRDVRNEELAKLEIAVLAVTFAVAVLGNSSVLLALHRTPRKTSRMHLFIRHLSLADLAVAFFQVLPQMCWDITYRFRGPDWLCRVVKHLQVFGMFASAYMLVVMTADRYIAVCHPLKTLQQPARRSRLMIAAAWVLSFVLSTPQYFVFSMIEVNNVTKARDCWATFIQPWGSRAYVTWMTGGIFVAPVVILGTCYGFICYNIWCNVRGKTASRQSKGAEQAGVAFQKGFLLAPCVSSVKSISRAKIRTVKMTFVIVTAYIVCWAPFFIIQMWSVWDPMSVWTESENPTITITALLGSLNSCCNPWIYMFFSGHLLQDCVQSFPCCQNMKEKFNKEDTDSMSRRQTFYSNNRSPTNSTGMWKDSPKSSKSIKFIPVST

| inhibition at 0.1 µM [%] | Compound |
| --- | --- |
| 1 | Cc1ccccc1-c1ccc(C(=O)N2Cc3ccc(C(=O)N4CCN(c5ccncc5)CC4)n3Cc3ccccc32)cc1 [Example 117, {10-[(2′-Methyl-[1,1′-biphenyl]-4-yl)carbonyl]-10,11-dihydro-5H-pyrrolo[2,1-c][1,4]benzodiazepin-3-yl}[4-(4-pyridinyl)-1-piperazinyl]methanone] |
| 13 | COc1ccccc1-c1ccc(C(=O)N2Cc3ccc(C(=O)NCc4ccccn4)n3Cc3ccccc32)cc1OC [Example 32, 10-[(2,2′-Dimethoxy-[1,1′-biphenyl]-4-yl)carbonyl]-N-(2-pyridinylmethyl)-10,11-dihydro-5H-pyrrolo[2,1-c][1,4]benzodiazepine-3-carboxamide] |
| 56 | Cc1ccccc1-c1ccc(C(=O)N2Cc3ccc(C(=O)N4CCN(c5ccncc5)CC4)n3Cc3ccccc32)cc1C [Example 114, {10-[(2,2′-Dimethyl-[1,1′-biphenyl]-4-yl)carbonyl]-10,11-dihydro-5H-pyrrolo[2,1-c][1,4]benzodiazepin-3-yl}[4-(4-pyridinyl)-1-piperazinyl]methanone] |
| 21 | COc1ccccc1-c1ccc(C(=O)N2Cc3ccc(C(=O)N4CCCCC4c4cccnc4)n3Cc3ccccc32)cc1 (centres unmarked) [Example 139, {10-[(2′-Methoxy-[1,1′-biphenyl]-4-yl)carbonyl]-10,11-dihydro-5H-pyrrolo[2,1-c][1,4]benzodiazepin-3-yl}[2-(3-pyridinyl)-1-piperidinyl]methanone] |
| 26 | COc1cc(-c2ccccc2C)c(Cl)cc1C(=O)N1Cc2ccc(C(=O)N(C)CCc3ccncc3)n2Cc2ccccc21 [Example 132, 10-[(6-Chloro-3-methoxy-2′-methyl-[1,1′-biphenyl]-4-yl)carbonyl]-N-methyl-N-[2-(4-pyridinyl)ethyl]-10,11-dihydro-5H-pyrrolo[2,1-c][1,4]benzodiazepine-3-carboxamide] |
| -3 | COc1cc(-c2ccccc2C)c(Cl)cc1C(=O)N1Cc2ccc(C(=O)N3CCCCC3c3cccnc3)n2Cc2ccccc21 (centres unmarked) [Example 140, {10-[(6-Chloro-3-methoxy-2′-methyl-[1,1′-biphenyl]-4-yl)carbonyl]-10,11-dihydro-5H-pyrrolo[2,1-c][1,4]benzodiazepin-3-yl}[2-(3-pyridinyl)-1-piperidinyl]methanone] |
| 83 | COc1cc(C(=O)N2Cc3ccc(C(=O)N(C)CCc4ccncc4)n3Cc3ccccc32)ccc1-c1ccccc1C [Example 131, 10-[(2-Methoxy-2′-methyl-[1,1′-biphenyl]-4-yl)carbonyl]-N-methyl-N-[2-(4-pyridinyl)ethyl]-10,11-dihydro-5H-pyrrolo[2,1-c][1,4]benzodiazepine-3-carboxamide] |
| 17 | COc1ccccc1-c1ccc(C(=O)N2Cc3ccc(C(=O)N(C)CCc4ccncc4)n3Cc3ccccc32)cc1OC [Example 125, 10-[(2,2′-Dimethoxy-[1,1′-biphenyl]-4-yl)carbonyl]-N-methyl-N-[2-(4-pyridinyl)ethyl]-10,11-dihydro-5H-pyrrolo[2,1-c][1,4]benzodiazepine-3-carboxamide] |
| -1 | COc1cc(C(=O)N2Cc3ccc(C(=O)N4CCN(c5ccccn5)CC4)n3Cc3ccccc32)ccc1-n1c(C)ccc1C [Example 145, {10-[4-(2,5-Dimethyl-1H-pyrrol-1-yl)-3-methoxybenzoyl]-10,11-dihydro-5H-pyrrolo[2,1-c][1,4]benzodiazepin-3-yl}[4-(pyridin-2-yl)-1-piperazinyl]methanone] |
| 4 | COc1cccc(-c2cc(OC)c(C(=O)N3Cc4ccc(C(=O)N(C)Cc5cccnc5)n4Cc4ccccc43)cc2Cl)c1 [Example 108, 10-[(6-Chloro-3,3′-dimethoxy-[1,1′-biphenyl]-4-yl)carbonyl]-N-methyl-N-(3-pyridinylmethyl)-10,11-dihydro-5H-pyrrolo[2,1-c][1,4]benzodiazepine-3-carboxamide] |
| 0 | Cc1cc(C(=O)N2Cc3ccc(C(=O)NCc4cccnc4)n3Cc3ccccc32)ccc1-c1ccccc1C(F)(F)F [Example 48, 10-{[2-Methyl-2′-trifluoromethyl-[1,1′-biphenyl]-4-yl]carbonyl}-N-(3-pyridinylmethyl)-10,11-dihydro-5H-pyrrolo[2,1-c][1,4]benzodiazepine-3-carboxamide] |
| -6 | COc1cccc(-c2cc(OC)c(C(=O)N3Cc4ccc(C(=O)NCc5cccnc5)n4Cc4ccccc43)cc2Cl)c1 [Example 43, 10-[(6-Chloro-3,3′-dimethoxy-[1,1′-biphenyl]-4-yl)carbonyl]-N-(3-pyridinylmethyl)-10,11-dihydro-5H-pyrrolo[2,1-c][1,4]benzodiazepine-3-carboxamide] |
| 2 | COc1cc(C(=O)N2Cc3ccc(C(=O)NCCc4ccccn4)n3Cc3ccccc32)ccc1-c1cccc2ccccc12 [Example 57, 10-[3-Methoxy-4-(naphthalen-1-yl)benzoyl]-N-[2-(2-pyridinyl)ethyl]-10,11-dihydro-5H-pyrrolo[2,1-c][1,4]benzodiazepine-3-carboxamide] |
| 15 | Cc1ccccc1-c1ccc(C(=O)N2Cc3ccc(C(=O)NCc4cccnc4)n3Cc3ccccc32)cc1 [Example 40, 10-[(2′-Methyl-[1,1′-biphenyl]-4-yl)carbonyl]-N-(3-pyridinylmethyl)-10,11-dihydro-5H-pyrrolo[2,1-c][1,4]benzodiazepine-3-carboxamide] |
| 5 | O=C(NCc1ccccn1)c1ccc2n1Cc1ccccc1N(C(=O)c1ccc(-c3cccc4ccccc34)cc1Cl)C2 [Example 34, 10-[2-Chloro-4-(naphthalen-1-yl)benzoyl]-N-(2-pyridinylmethyl)-10,11-dihydro-5H-pyrrolo[2,1-c][1,4]benzodiazepine-3-carboxamide] |
| 26 | Cc1ccccc1-c1ccc(C(=O)N2Cc3ccc(C(=O)NCCc4ccccn4)n3Cc3ccccc32)cc1C [Example 50, 10-[(2,2′-Dimethyl-[1,1′-biphenyl]-4-yl)carbonyl]-N-[2-(2-pyridinyl)ethyl]-10,11-dihydro-5H-pyrrolo[2,1-c][1,4]benzodiazepine-3-carboxamide] |
| -7 | COc1cc(-c2ccccc2C)c(Cl)cc1C(=O)N1Cc2ccc(C(=O)NCCc3ccccn3)n2Cc2ccccc21 [Example 55, 10-[(6-Chloro-3-methoxy-2′-methyl-[1,1′-biphenyl]-4-yl)carbonyl]-N-[2-(2-pyridinyl)ethyl]-10,11-dihydro-5H-pyrrolo[2,1-c][1,4]benzodiazepine-3-carboxamide] |
| 5 | Cc1ccccc1-c1ccc(C(=O)N2Cc3ccc(C(=O)N(C)CCc4ccncc4)n3Cc3ccccc32)cc1 [Example 130, N-Methyl-10-[(2′-methyl-[1,1′-biphenyl]-4-yl)carbonyl]-N-[2-(4-pyridinyl)ethyl]-10,11-dihydro-5H-pyrrolo[2,1-c][1,4]benzodiazepine-3-carboxamide] |
| -11 | COc1cc(-c2ccccc2C)c(Cl)cc1C(=O)N1Cc2ccc(C(=O)NCc3cccnc3)n2Cc2ccccc21 [Example 42, 10-[(6-Chloro-3-methoxy-2′-methyl-[1,1′-biphenyl]-4-yl)carbonyl]-N-(3-pyridinylmethyl)-10,11-dihydro-5H-pyrrolo[2,1-c][1,4]benzodiazepine-3-carboxamide] |
| 10 | COc1ccccc1-c1ccc(C(=O)N2Cc3ccc(C(=O)NCc4cccnc4)n3Cc3ccccc32)cc1 [Example 39, 10-[(2′-Methoxy-[1,1′-biphenyl]-4-yl)carbonyl]-N-(3-pyridinylmethyl)-10,11-dihydro-5H-pyrrolo[2,1-c][1,4]benzodiazepine-3-carboxamide] |
